Source: patent publication US20240336565A1, “SOLID FORMS OF OSANETANT” (Acer Therapeutics, Inc., priority 2021, published 2024)
Entries after “also recorded” stand apart in the source; their conditions may differ.

Columns and labels:
[1] = Hydration study (stirring in ethanol: water mixtures, XRPD); type: physicochemical
Procedure: (§1) 20 mg of osanetant p-toluenesulfonic acid Form 1 was stirred in the appropriate ethanol: water mixtures for 24 h at 25° C. Where clear solutions were observed after 1 h at 25° C., 0.5 mL of liquor was removed, and additional solid was added until a slurry was maintained. After 24 h total, the experiments were isolated by centrifugation, and the solids were analyzed by XRPD.
as §1, with “Osanetant benzenesulfonic acid” for “20 mg of osanetant p-toluenesulfonic acid”, “Form 3 (20 mg)” for “Form 1”, “was removed from the Aw 0.257 sample,” for “was removed,”

[2] = Salt screen: XRPD of isolated solids after drying at 40° C. and at 40° C./75% RH; type: physicochemical; settings: for XRPD after drying at 40° C./75% RH: after 40° C. drying, dried at 40° C./75% RH for about 24 h, label = form after 40° C. drying; for XRPD after drying at 40° C.: isolated solids dried at 40° C. for about 24 h, label = wet form
Procedure: To approximately 20 mg of amorphous lyophilized osanetant was added 0.3 mL of solvent for liquid counterion experiments. 0.2 mL of solvent was employed for solid counterion experiments. […] To the stirring mixture was then added 1.05 mol eq. of the appropriate counterion. Where solid counterions were used, the vial which contained the counterion was washed in to the osanetant containing vial with 0.1 mL of the appropriate solvent. Additional solvent was added where necessary. The experiments were thermally cycled as follows: heated from 25 to 40° C. at a rate of 0.1° C./min; 1 h at 40° C.; Cool to 5° C. at a rate of 0.1° C.; 1 h at 5° C.; 40° C. at a rate of 0.1° C./min; […] The crystallization experiments were thermally cycled overnight, then slurries were isolated by centrifugation. XRPD analysis was carried out on any isolated solids or gums. The XRPD plate, and the isolated solids, were then dried at 40° C. for about 24 h, and XRPD analysis was repeated. The XRPD plate was then dried at 40° C./75% RH for about 24 h and XRPD analysis was again repeated. All other samples were allowed to evaporated at ambient temperature and pressure.

[3] = Thermodynamic solubility in water and pH buffers
[4] = Comparative studies: 7-day stability; type: physicochemical; settings: for impurities on 7-day stability: 80° C.; for solid form on 7-day stability: 7 days, elevated temperature where stated
Procedure: Osanetant p-toluenesulfonic acid Form 1, osanetant benzene sulfonic acid Form 3, osanetant naphthalene-2-sulfonic acid Form 3, and osanetant phosphoric acid Form 7 were compared. Osanetant phosphoric acid Form 7 was obtained when preparation of osanetant phosphoric acid Form 4 was repeated and found to be not reproducible, and Form 7 was determined to be a mixture of hydrates).
Thus, osanetant benzene sulfonic acid salt Form 1 and osanetant p-toluene sulfonic acid salt Form 1 were identified as advantageous salts.

[5] = Disproportionation study (stirring in water, XRPD, pH of liquor); type: physicochemical; settings: 10 mg in 1 mL of water, 24 h at 25° C.
Procedure: After 24 h total, a white slurry was observed and was isolated by centrifugation. The solids were analyzed by XRPD. The pH of the filtered liquor was measured at 5.63. […] After 24 h total, a white slurry was observed and was isolated by centrifugation. The solids were analyzed by XRPD. The pH of the filtered liquor was measured (pH=5.09).

[6] = Solid form stability observations (scale up / polymorph work: drying, ambient conditions, aqueous media); type: physicochemical
Procedure: Two anhydrous forms of the osanetant p-toluenesulfonic acid were synthesized. […] Form 6, described below, was a stable anhydrous form, but hydrated in water and aqueous solvent mixtures.
Advantageously, Form 1 (hydrate) and Form 6 (anhydrous) were stable on drying. Form 1 re-hydrated at room temperature and pressure after KF analysis, when it was heated in an oven to remove the water.
The experiment was cooled to 5° C. at a rate of 0.1° C./min and stirred at 5° C. for 18 h. The slurry was isolated be Buchner filtration: 42.5 mm Ø grade 1 Whatman filter paper; fast Filtration (<30 s); the cake was washed with 1 mL of ethyl acetate; the isolated solids were dried at 40° C. under vacuum for 72 h. […]

[7] = Hygroscopicity / dynamic vapor sorption (DVS); type: physicochemical
Procedure: The osanetant p-toluenesulfonic acid Form 1 solids consisted of aggregated crystals with an undefined morphology. Select peaks which can be used to characterize osanetant p-toluenesulfonic acid Form 1 include one or more of 11.4°2θ±0.2°2θ, 18.0°2θ±0.2°2θ, 19.0°2θ±0.2°2θ, 19.3°2θ±0.2°2θ, 19.8°2θ±0.2°2θ, or 21.1°2θ±0.2°2θ. In some embodiments, osanetant p-toluenesulfonic acid Form 1 is a monohydrate.

Molecule	XRPD form after stirring in ethanol: water mixtures ([1]; 24 h at 25° C., Aw 0.507 and above / high water activity)	XRPD ([1]; slurry in ethanol:water 63.6:36.4 % v/v, calc Aw 0.745, 24 h at 25° C.)	XRPD ([1]; slurry in ethanol:water 92.9:7.1 % v/v, calc Aw 0.507, 24 h at 25° C.)	XRPD ([1]; slurry in ethanol:water 98.4:1.6 % v/v, calc Aw 0.257, 24 h at 25° C.)	XRPD after drying at 40° C./75% RH [2]	XRPD after drying at 40° C. [2]	solid form after thermodynamic solubility in pH buffers [3]	thermodynamic solubility in pH buffers / buffered systems [3]	solid chemical stability ([4]; 7-day stability results, overall)	impurities on 7-day stability [4]	solid form on 7-day stability [4]	XRPD form / disproportionation after stirring in water [5]	pH of the filtered liquor [5]	hydration / form conversion in water and aqueous solvent mixtures [6]	form on drying ([6]; drying (40° C. under vacuum where stated))	hygroscopicity / water loss on DVS analysis [7]
CC(=O)N(C)C1(c2ccccc2)CCN(CCC[C@]2(c3ccc(Cl)c(Cl)c3)CCCN(C(=O)c3ccccc3)C2)CC1.O=S(=O)(O)c1ccccc1 [osanetant benzenesulfonic acid Form 3, (R)-N-(1-(3-(1-benzoyl-3-(3,4-dichlorophenyl)piperidin-3-yl)propyl)-4-phenylpiperidin-4-yl)-N-methylacetamide benzenesulfonic acid]	conversion to osanetant benzenesulfonic acid Form 1; also recorded: converted to osanetant benzene sulfonic acid Form 1	Form 1	Form 1	Form 3	retained; also recorded: stable; also recorded: Form 3	Form 3	converted to Form 1	low	good	slight increase in impurities; also recorded: lowest impurity increase	retained form	converted to osanetant benzenesulfonic acid Form 1	5.09	converted to osanetant benzene sulfonic acid salt form Form 1	no change	–
(R)-N-(1-(3-(1-benzoyl-3-(3,4-dichlorophenyl)piperidin-3-yl)propyl)-4-phenylpiperidin-4-yl)-N-methylacetamide naphthalene-2-sulfonic acid [osanetant naphthalene-2-sulfonic acid Form 3]	–	–	–	–	retained; also recorded: stable; also recorded: Form 3	retained; also recorded: Form 3	–	–	–	increase in impurities	stable solid form	–	–	–	–	more hygroscopic
